For 19 compounds, EC50 results are on record in patent US20120045393A1 (priority 2009, published 2012).

Molecules are shown by their SMILES. Starred links: 1 amine or outer side, 2 acyl side, 3 side chain; linkers in the order of their positions; H or OH if unused. Non-standard residues stand in square brackets, D forms with d. Residues, ends and D or L forms follow the SMILES beside them. *: point of attachment. DOTA = O=C(O)CN1CCN(CC(=O)O)CCN(CC(=O)*)CCN(CC(=O)O)CC1; Bpa = N[C@@H](Cc1ccc(C(=O)c2ccccc2)cc1)C(=O)O; Ala(4-thiazolyl) = N[C@@H](Cc1cscn1)C(=O)O; d2Nal = N[C@H](Cc1ccc2ccccc2c1)C(=O)O; X2 = O=C(N(N[*:1])c1ccccn1)[*:2]; NHPh = c1ccc(N*)cc1; azaGly = NNC(=O)O; Sar = CNCC(=O)O
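Also: Cell-associated radioactivity on confluent EFO-27 monolayers in 96-well plates, measured by microplate scintillation counting.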

In the first test the test system is LHRH binding sites on human ovarian cancer cells (EFO-27).
Settings: not given
As usually defined, the EC50 is the concentration giving half of the maximal effect. `N=C(N)NCCC[C@H](NC(=O)[C@@H](Cc1ccc2ccccc2c1)NC(=O)CN1CCN(CC(=O)O)CCN(CC(=O)O)CCN(CC(=O)O)CC1)C(=O)N[C@@H](Cc1c[nH]c2ccccc12)C(=O)N[C@@H](CO)C(=O)N[C@@H](Cc1c[nH]cn1)C(=O)N[C@H](CCCNC(=N)N)C(=O)N[C@@H](Cc1c[nH]c2ccccc12)C(=O)N[C@@H](Cc1ccc(C(=O)c2ccccc2)cc1)C(=O)O` [BRU-3064, DO3A10CM-Dna12-Arg-Trp-Ser-His-Darg-Trp-Bpa4-OH] ({DOTA}-[d2Nal]RWSH[dR]W[Bpa]-OH) had a concentration giving a half-maximal response (EC50) of 720 nM.

In turn, `CC(C)C[C@H](NC(=O)[C@H](Cc1c[nH]c2ccccc12)NC(=O)[C@H](CCCNC(=N)N)NC(=O)[C@@H](Cc1ccc2ccccc2c1)NC(=O)CN1CCN(CC(=O)O)CCN(CC(=O)O)CCN(CC(=O)O)CC1)C(=O)N[C@@H](Cc1c[nH]cn1)C(=O)N[C@H](CCCNC(=N)N)C(=O)N[C@@H](Cc1c[nH]c2ccccc12)C(=O)N[C@@H](Cc1ccc(C(=O)c2ccccc2)cc1)C(=O)N1CCC[C@H]1C(=O)NNC(N)=O` [compound 3113] ({DOTA}-[d2Nal]RWLH[dR]W[Bpa]P[azaGly]-NH2) displayed a 50% effective concentration (EC50) of 1130 nM.

Turning to `CN(CC(N)=O)NC(=O)[C@@H]1CCCN1C(=O)[C@H](Cc1ccc(C(=O)c2ccccc2)cc1)NC(=O)[C@H](Cc1c[nH]c2ccccc12)NC(=O)[C@@H](CCCNC(=N)N)NC(=O)[C@H](Cc1c[nH]cn1)NC(=O)[C@H](CO)NC(=O)[C@H](Cc1c[nH]c2ccccc12)NC(=O)[C@H](CCCNC(=N)N)NC(=O)[C@@H](Cc1ccc2ccccc2c1)NC(=O)CN1CCN(CC(=O)O)CCN(CC(=O)O)CCN(CC(=O)O)CC1` [compound 2967], the concentration for a half-maximal effect (EC50) was 440 nM.

For the compound `CNCC(=O)N[C@@H](CCCNC(=N)N)C(=O)N[C@@H](Cc1c[nH]c2ccccc12)C(=O)N[C@@H](CO)C(=O)N[C@@H](Cc1c[nH]cn1)C(=O)N[C@H](CCCNC(=N)N)C(=O)N[C@@H](Cc1c[nH]c2ccccc12)C(=O)N[C@@H](Cc1ccc(C(=O)c2ccccc2)cc1)C(=O)N1CCC[C@H]1C(=O)NCc1cccc(CNC(=O)CN2CCN(CC(=O)O)CCN(CC(=O)O)CCN(CC(=O)O)CC2)n1` [compound 3080], the EC50 was found to be 230 ± 100 nM.

Compound `N=C(N)NCCC[C@H](NC(=O)[C@H](N)Cc1ccc2ccccc2c1)C(=O)N[C@@H](Cc1c[nH]c2ccccc12)C(=O)N[C@@H](CO)C(=O)N[C@@H](Cc1c[nH]cn1)C(=O)N[C@H](CCCNC(=N)N)C(=O)N[C@@H](Cc1c[nH]c2ccccc12)C(=O)N[C@@H](Cc1ccc(C(=O)c2ccccc2)cc1)C(=O)N1CCC[C@H]1C(=O)NCCOCCNC(=O)CN1CCN(CC(=O)O)CCN(CC(=O)O)CCN(CC(=O)O)CC1` [compound 2991] gave an EC50 of 210 ± 60 nM.

In turn, `CN(CC(=O)N[C@@H](Cc1c[nH]cn1)C(=O)N[C@@H](Cc1c[nH]c2ccccc12)C(=O)N[C@@H](CO)C(=O)N[C@@H](Cc1c[nH]cn1)C(=O)N[C@H](CCCNC(=N)N)C(=O)N[C@@H](Cc1c[nH]c2ccccc12)C(=O)N[C@@H](Cc1c[nH]c2ccccc12)C(=O)N1CCC[C@H]1C(=O)NNC(N)=O)C(=O)CN1CCN(CC(=O)O)CCN(CC(=O)O)CCN(CC(=O)O)CC1` [BRU-2724] (HELM PEPTIDE1{[O=C(O)CN1CCN(CC(=O)O)CCN(CC(=O)[*:2])CCN(CC(=O)O)CC1].[Sar].H.W.S.H.[dR].W.W.P.[O=C(NN[*:1])[*:2]].[am]}$$$$V2.0) yielded a half-maximal effective concentration (EC50) of 2670 nM.

For the compound `CNCC(=O)N[C@@H](CCCNC(=N)N)C(=O)N[C@@H](Cc1c[nH]c2ccccc12)C(=O)N[C@@H](CO)C(=O)N[C@@H](Cc1c[nH]cn1)C(=O)N[C@H](CCCNC(=N)N)C(=O)N[C@@H](Cc1c[nH]c2ccccc12)C(=O)N[C@@H](Cc1ccc(C(=O)c2ccccc2)cc1)C(=O)N1CCC[C@H]1C(=O)NCCNC(=O)CN1CCN(CC(=O)O)CCN(CC(=O)O)CCN(CC(=O)O)CC1` [BRU-3103], the EC50 is ≤ 200 nM.

With `N=C(N)NCCC[C@H](NC(=O)[C@H](CO)NC(=O)[C@H](Cc1c[nH]c2ccccc12)NC(=O)[C@H](CCCNC(=N)N)NC(=O)[C@@H](Cc1ccc2ccccc2c1)NC(=O)CN1CCN(CC(=O)O)CCN(CC(=O)O)CCN(CC(=O)O)CC1)C(=O)N[C@H](Cc1c[nH]c2ccccc12)C(=O)N[C@@H](Cc1c[nH]c2ccccc12)C(=O)N[C@@H](Cc1ccc(C(=O)c2ccccc2)cc1)C(=O)N1CCC[C@H]1C(=O)NNC(N)=O` [compound 3001] ({DOTA}-[d2Nal]RWSR[dW]W[Bpa]P[azaGly]-NH2), a half-maximal effect (EC50) was put at 3280 nM.

`CN(CC(=O)N[C@@H](Cc1c[nH]cn1)C(=O)N[C@@H](Cc1c[nH]c2ccccc12)C(=O)N[C@@H](CO)C(=O)N[C@@H](Cc1c[nH]cn1)C(=O)N[C@H](CCCNC(=N)N)C(=O)N[C@@H](Cc1c[nH]c2ccccc12)C(=O)N[C@@H](Cc1ccccc1)C(=O)N1CCC[C@H]1C(=O)NNC(N)=O)C(=O)CN1CCN(CC(=O)O)CCN(CC(=O)O)CCN(CC(=O)O)CC1` [BRU-2730] (HELM PEPTIDE1{[O=C(O)CN1CCN(CC(=O)O)CCN(CC(=O)[*:2])CCN(CC(=O)O)CC1].[Sar].H.W.S.H.[dR].W.F.P.[O=C(NN[*:1])[*:2]].[am]}$$$$V2.0) gave an EC50 of 12900 nM.

Regarding `N=C(N)NCCC[C@H](NC(=O)[C@H](N)Cc1ccc2ccccc2c1)C(=O)N[C@@H](Cc1c[nH]c2ccccc12)C(=O)N[C@@H](CO)C(=O)N[C@@H](Cc1c[nH]cn1)C(=O)N[C@H](CCCNC(=N)N)C(=O)N[C@@H](Cc1c[nH]c2ccccc12)C(=O)N[C@@H](Cc1ccc(C(=O)c2ccccc2)cc1)C(=O)N1CCC[C@H]1C(=O)NCCCCNC(=O)CN1CCN(CC(=O)O)CCN(CC(=O)O)CCN(CC(=O)O)CC1` [compound 3042], the midpoint of the response, the EC50, lay at 200 nM.

Take `CNCC(=O)N[C@@H](CCCNC(=N)N)C(=O)N[C@@H](Cc1c[nH]c2ccccc12)C(=O)N[C@@H](CO)C(=O)N[C@@H](Cc1c[nH]cn1)C(=O)N[C@H](CCCNC(=N)N)C(=O)N[C@@H](Cc1c[nH]c2ccccc12)C(=O)N[C@@H](Cc1ccc(C(=O)c2ccccc2)cc1)C(=O)N1CCC[C@H]1C(=O)NCCOCCNC(=O)CN1CCN(CC(=O)O)CCN(CC(=O)O)CCN(CC(=O)O)CC1` [compound 3039]: a half-maximal response (EC50) required 280 ± 30 nM.

`CN(CC(=O)N[C@@H](Cc1c[nH]cn1)C(=O)N[C@@H](Cc1c[nH]c2ccccc12)C(=O)N[C@@H](CO)C(=O)N[C@@H](Cc1c[nH]cn1)C(=O)N[C@H](CCCNC(=N)N)C(=O)N[C@@H](Cc1c[nH]c2ccccc12)C(=O)N[C@@H](Cc1cscn1)C(=O)N1CCC[C@H]1C(=O)NNC(N)=O)C(=O)CN1CCN(CC(=O)O)CCN(CC(=O)O)CCN(CC(=O)O)CC1` [BRU-2742]: the EC50 came out at 10000 nM.

`CN(CC(=O)N[C@@H](Cc1c[nH]cn1)C(=O)N[C@@H](Cc1c[nH]c2ccccc12)C(=O)N[C@@H](CO)C(=O)N[C@@H](Cc1c[nH]cn1)C(=O)N[C@H](CCCNC(=N)N)C(=O)N[C@@H](Cc1c[nH]c2ccccc12)C(=O)N[C@H](C(=O)N1CCC[C@H]1C(=O)NNC(N)=O)C1Cc2ccccc2C1)C(=O)CN1CCN(CC(=O)O)CCN(CC(=O)O)CCN(CC(=O)O)CC1` [BRU-2765] displayed a 50% effective concentration (EC50) of 8710 nM.

With `CCNC(=O)[C@@H]1CCCN1C(=O)[C@H](Cc1ccc(C(=O)c2ccccc2)cc1)NC(=O)[C@H](Cc1c[nH]c2ccccc12)NC(=O)[C@@H](CCCNC(=N)N)NC(=O)[C@H](Cc1c[nH]cn1)NC(=O)[C@H](CO)NC(=O)[C@H](Cc1c[nH]c2ccccc12)NC(=O)[C@H](CCCNC(=N)N)NC(=O)[C@@H](Cc1ccc2ccccc2c1)NC(=O)CN1CCN(CC(=O)O)CCN(CC(=O)O)CCN(CC(=O)O)CC1` [compound 2981], the 50% effective concentration (EC50) was determined as 970 nM.

Consider `CN(CC(=O)N[C@@H](Cc1cscn1)C(=O)N[C@@H](Cc1c[nH]c2ccccc12)C(=O)N[C@@H](CO)C(=O)N[C@@H](Cc1c[nH]cn1)C(=O)N[C@H](CCCNC(=N)N)C(=O)N[C@@H](Cc1c[nH]c2ccccc12)C(=O)N[C@@H](Cc1ccc(C(=O)c2ccccc2)cc1)C(=O)N1CCC[C@H]1C(=O)NNC(N)=O)C(=O)CN1CCN(CC(=O)O)CCN(CC(=O)O)CCN(CC(=O)O)CC1` [BRU-2768] ({DOTA}-[Sar][Ala(4-thiazolyl)]WSH[dR]W[Bpa]P[azaGly]-NH2), for which the half-maximal effective concentration (EC50) came to 12800 nM.

The same test, now with this note: EFO-27 cells, competition with [125I-Tyr8]BRU-2477, 90 min.
In the case of `N=C(N)NCCC[C@H](NC(=O)[C@@H](Cc1ccc2ccccc2c1)NC(=O)CN1CCN(CC(=O)O)CCN(CC(=O)O)CCN(CC(=O)O)CC1)C(=O)N[C@@H](Cc1c[nH]c2ccccc12)C(=O)N[C@@H](CO)C(=O)N[C@@H](Cc1c[nH]cn1)C(=O)N[C@H](CCCNC(=N)N)C(=O)N[C@@H](Cc1c[nH]c2ccccc12)C(=O)N[C@@H](Cc1ccc(C(=O)c2ccccc2)cc1)C(=O)N1CCC[C@H]1C(=O)NCC(=O)NN(C(=O)Nc1ccccc1)c1ccccn1` [compound 2989] ({DOTA}-[d2Nal]RWSH[dR]W[Bpa]PG[X2]-NHPh), the EC50 turned out to be 1130 nM.

Turning to `N=C(N)NCCC[C@H](NC(=O)[C@H]1Cc2c([nH]c3ccccc23)CN1C(=O)CNC(=O)CN1CCN(CC(=O)O)CCN(CC(=O)O)CCN(CC(=O)O)CC1)C(=O)N[C@@H](Cc1c[nH]c2ccccc12)C(=O)N[C@@H](CO)C(=O)N[C@@H](Cc1c[nH]cn1)C(=O)N[C@H](CCCNC(=N)N)C(=O)N[C@@H](Cc1c[nH]c2ccccc12)C(=O)N[C@@H](Cc1ccc(C(=O)c2ccccc2)cc1)C(=O)N1CCC[C@H]1C(=O)NNC(N)=O` [BRU-3068], the EC50 is 240 nM.

In the case of `N=C(N)NCCC[C@H](NC(=O)[C@@H](Cc1ccc2ccccc2c1)NC(=O)CN1CCN(CC(=O)O)CCN(CC(=O)O)CCN(CC(=O)O)CC1)C(=O)N[C@@H](Cc1c[nH]c2ccccc12)C(=O)N[C@@H](CO)C(=O)N[C@@H](Cc1c[nH]cn1)C(=O)N[C@H](CCCNC(=N)N)C(=O)N[C@@H](Cc1c[nH]c2ccccc12)C(=O)N[C@@H](Cc1ccc(C(=O)c2ccccc2)cc1)C(=O)N1C[C@@H](N)C[C@H]1C(=O)NNC(N)=O` [compound 3062], the EC50 was 320 nM.

Still in this test, the particulars now being: Table 5: modifications of amino acids at positions 1 and 2; in vitro binding on EFO-27 cells.
The compound `N=C(N)NCCC[C@@H](NC(=O)[C@H](Cc1c[nH]cn1)NC(=O)[C@H](CO)NC(=O)[C@H](Cc1c[nH]c2ccccc12)NC(=O)[C@H](Cc1c[nH]cn1)NC(=O)CNC(=O)CN1CCN(CC(=O)O)CCN(CC(=O)O)CCN(CC(=O)O)CC1)C(=O)N[C@@H](Cc1c[nH]c2ccccc12)C(=O)N[C@@H](Cc1ccc(C(=O)c2ccccc2)cc1)C(=O)N1CCC[C@H]1C(=O)NNC(N)=O` [BRU-2733] returned a half-maximal effective concentration (EC50) of 1180 nM.
